Patent US12390460B2, “Treatment for obesity” (1GLOBE BIOMEDICAL CO., LTD., priority 2018, dated 2025)

Assays:
human HepG2 liver cells [1] = assay: Intracellular fat content in HepG2 cells, AdipoRed/Hoechst 33258 double staining, 24 hours; type: cell-based; conditions: HepG2, 0.8 mM palmitoleic acid, 0.1 μM compound, FIG. 10B; for palmitoleic acid-induced increase of intracellular triglyceride content: vs DMSO
Method: The effects of Compound 13-3-1, Compound 13-3-2, Compound 13-3-3, Compound 13-3-5, Compound 13-3-6, Compound 13-3-7, Compound 15-1, Compound 13-3-10 and Compound 13-3-11, as exemplary compounds of the invention, were tested. Human HepG2 liver cells were incubated with 0.8 mM palmitoleic acid in EMEM medium for 24 hours in the presence of 0.1 μM compounds or control vehicle, DMSO. Subsequently, the cells were washed with PBS and the intracellular fat content was measured by AdipoRed/Hoechst 33258 double staining, which was assessed by flourometry.

human HepG2 liver cells [2] = assay: Intracellular fat content in HepG2 cells, AdipoRed/Hoechst 33258 double staining, 48 hours; type: cell-based; conditions: HepG2, 0.8 mM palmitoleic acid, 0.1 μM compound, FIG. 10C; for palmitoleic acid-induced increase of intracellular triglyceride content: vs DMSO
Method: And the effects of Compound 001, Compound 004, Compound 006, Compound 013, Compound 132, Compound 133 and Compound 134, as further exemplary compounds of the invention, were also tested. Human HepG2 liver cells were incubated with 0.8 mM palmitoleic acid in EMEM medium for 48 hours in the presence of 0.1 μM compounds of the invention or control vehicle, DMSO. Subsequently, the cells were washed with PBS and the intracellular fat content was measured by AdipoRed/Hoechst 33258 double staining, which was assessed by flourometry.

Row | SMILES | inhibitory effect on fat accumulation as compared to Compound 14-3 (human HepG2 liver cells [1]) | palmitoleic acid-induced increase of intracellular triglyceride content (human HepG2 liver cells [1]) | inhibitory effect on fat accumulation as compared to Compound 14-3 (human HepG2 liver cells [2]) | palmitoleic acid-induced increase of intracellular triglyceride content (human HepG2 liver cells [2])
1 | CCN(CC)CCNC(=O)c1c(C)[nH]c(/C=C2\C(=O)Nc3cnc(-c4csc(-c5ccccc5)n4)cc32)c1C [Compound 13-3-10] | comparable or greater | markedly suppressed |  | 
2 | [2H]c1c([2H])c([2H])c(-c2nc(-c3ccc4c(c3)/C(=C/c3[nH]c(C)c(C(=O)NC([2H])([2H])C([2H])([2H])N(CC)CC)c3C)C(=O)N4)cs2)c([2H])c1[2H] [Compound 013] |  |  | comparable or greater | markedly suppressed
3 | [2H]C([2H])(NC(=O)c1c(C)[nH]c(/C=C2\C(=O)Nc3ccc(-c4csc(-c5ccccc5)n4)cc32)c1C)C([2H])([2H])N(CC)CC [Compound 001] |  |  | comparable or greater | markedly suppressed
4 | CCN(CC)CCNC(=O)c1c(C)[nH]c(/C=C2\C(=O)Nc3cccc(-c4cnc(OC)nc4)c32)c1C [Compound 13-3-5] | comparable or greater | markedly suppressed |  | 
5 | CCN(CC)CCNC(=O)c1c(C)[nH]c(/C=C2\C(=O)Nc3ccc(-c4csc(N5CCCCC5)n4)cc32)c1C [Compound 13-3-2] | comparable or greater | markedly suppressed |  | 
6 | CCN(CC)CCNC(=O)c1c(C)[nH]c(/C=C2\C(=O)Nc3ccc(C4CCN(c5ccccc5)CC4)cc32)c1C [Compound 13-3-11] | comparable or greater | markedly suppressed |  | 
7 | [2H]C([2H])([2H])C([2H])([2H])N(C([2H])([2H])C([2H])([2H])[2H])C([2H])([2H])C([2H])([2H])NC(=O)c1c(C)[nH]c(/C=C2\C(=O)Nc3ccc(-c4csc(-c5ccccc5)n4)cc32)c1C [Compound 004] |  |  | comparable or greater | markedly suppressed
8 | Cc1[nH]c(/C=C2\C(=O)Nc3ccc(-c4csc(-c5cccnc5)n4)cc32)c(C)c1C(=O)N1CCN(C)CC1 [Compound 15-1] | comparable or greater | markedly suppressed |  | 
9 | [2H]c1c([2H])c([2H])c(-c2nc(-c3ccc4c(c3)/C(=C/c3[nH]c(C)c(C(=O)NC([2H])([2H])C([2H])([2H])N(C([2H])([2H])C([2H])([2H])[2H])C([2H])([2H])C([2H])([2H])[2H])c3C)C(=O)N4)cs2)c([2H])c1[2H] [Compound 006] |  |  | comparable or greater | markedly suppressed
10 | CCN(CC)CCNC(=O)c1c(C)[nH]c(/C=C2\C(=O)Nc3ccc(-c4csc(Nc5ccccc5)n4)cc32)c1C [Compound 13-3-1] | comparable or greater | markedly suppressed |  | 
11 | CCN(CC)CCNC(=O)CCc1c(C)[nH]c(/C=C2\C(=O)Nc3ccc(-c4csc(-c5ccccc5)n4)cc32)c1C [Compound 13-3-7] | comparable or greater | markedly suppressed |  | 
12 | CCN(CC)CCC(=O)N1CCN(c2ccc(/C=C3\C(=O)Nc4ccc(-c5csc(-c6ccccc6)n5)cc43)cc2)CC1 [Compound 13-3-6] | comparable or greater | markedly suppressed |  | 
